What was measured:
[1] = tested on: Ba/F3 cells transformed to factor independence by ectopic expression of TEL/JAK2 fusion; test: Ba/F3 proliferation assay, cells transformed to factor independence by TEL/JAK2; type: cell-based, murine; settings: oncogenic JAK2 (PTK domain fused to PNT domain of TEL); FIG. 5
[2] = tested on: wild-type Ba/F3 cells grown upon IL-3; test: Ba/F3 proliferation assay (IL-3 dependent growth, MTT); type: cell-based, murine; settings: peptide 1 μM to 100 μM in PBS; cell number after three days by MTT assay; FIG. 5
Description: FIG. 5. Ba/F3 cell assay: Inhibition of the growth of the IL-3 dependent growth of Ba/F3 cells has been brought about by the addition of a peptide derived from JAK2 PSL. PSLShort PAEFMRMI (SEQ ID NO:15) and PSLControl SPSKFRMPEAMIGND (SEQ ID NO:16) were added at concentrations ranging from IμM to 100 μM in phosphate buffered saline. Cell number after three days was measured by an MTT assay.
These peptides were tested for biological activity by means of a proliferation assay using the murine growth factor dependent hematopoietic cell line Ba/F3. On the basis of our hypothesis of the role of how the PSL region might work, we reasoned that if these peptides were to supplant the PSL from the KLD of JAK2, then the JAK PTK activity would thereby either become unregulated, resulting in a IL-3 independent growth phenotype, or the normal IL-3 dependent growth of these cells would be inhibited. […] We hypothesize that the activity of the PSLshort peptide was dependent upon the presence of the JAK2 KLD, and conclude that its mode of action is by displacement of the PSL of JAK2 from the JAK2 KLD, resulting in unprimed JAK2 molecules that cannot be triggered by IL-3. […]
The murine hematopoietic cell line Ba/F3 was grown in the presence of IL-3. […] Cell number after three days was measured by an MTT assay.

## PAEFMRMI (homo sapiens) [PSLshort]
[1]
  inhibition of growth of Ba/F3 cells transformed to factor independence by TEL/JAK2: unable to inhibit
[2]
  inhibition of growth of wild-type Ba/F3 cells grown upon IL-3: able to inhibit growth
